According to US20240376163A1, “PEPTIDE FOR INHIBITING CALCINEURIN AND USE THEREOF” (Seoul National University R&DB Foundation, priority 2023, published 2024):

Test system: Jurkat T cells
Assay: mRNA sequencing of activated Jurkat T cells
Assay type: cell-based, human
Conditions: P + I

Sequence: PEITVTPPTP [CABIN1-L-1-2]
- MSMO1 FPKM (Jurkat T cells): 52.664 FPKM
- MT2A FPKM (Jurkat T cells): 409.501 FPKM
- MXD3 FPKM (Jurkat T cells): 20.08 FPKM
- MYB FPKM (Jurkat T cells): 48.107 FPKM
- MZB1 FPKM (Jurkat T cells): 23.597 FPKM
- N4BP3 FPKM (Jurkat T cells): 2.499 FPKM
- NAA16 FPKM (Jurkat T cells): 3.877 FPKM
- NCKAP1 FPKM (Jurkat T cells): 10.157 FPKM
- NCOA3 FPKM (Jurkat T cells): 11.775 FPKM
- NDRG1 FPKM (Jurkat T cells): 128.386 FPKM
- NDRG2 FPKM (Jurkat T cells): 2.149 FPKM
- NEDD9 FPKM (Jurkat T cells): 4.972 FPKM
- NFATC1 FPKM (Jurkat T cells): 3.916 FPKM
- NFKB1 FPKM (Jurkat T cells): 44.661 FPKM
- NFKB2 FPKM (Jurkat T cells): 71.869 FPKM
- NLRC3 FPKM (Jurkat T cells): 5.507 FPKM
- NME4 FPKM (Jurkat T cells): 17.501 FPKM
- NOTCH2 FPKM (Jurkat T cells): 12.916 FPKM
- NOTCH3 FPKM (Jurkat T cells): 0.859 FPKM
- NPDC1 FPKM (Jurkat T cells): 5.64 FPKM
- NR4A3 FPKM (Jurkat T cells): 1.977 FPKM
- NREP FPKM (Jurkat T cells): 6.879 FPKM
- NRP1 FPKM (Jurkat T cells): 14.016 FPKM
- NSG1 FPKM (Jurkat T cells): 3.929 FPKM
- NSMF FPKM (Jurkat T cells): 3.265 FPKM
- NT5E FPKM (Jurkat T cells): 12.217 FPKM
- NTRK1 FPKM (Jurkat T cells): 1.657 FPKM
- ODC1 FPKM (Jurkat T cells): 374.309 FPKM
- OPTN FPKM (Jurkat T cells): 14.333 FPKM
- OSBPL5 FPKM (Jurkat T cells): 3.123 FPKM
- PAM FPKM (Jurkat T cells): 1.934 FPKM
- PCNA-AS1 FPKM (Jurkat T cells): 71.806 FPKM
- PDCD1 FPKM (Jurkat T cells): 1.974 FPKM
- PDGFA FPKM (Jurkat T cells): 8.169 FPKM
- PDGFC FPKM (Jurkat T cells): 2.913 FPKM
- PDIA6 FPKM (Jurkat T cells): 128.39 FPKM
- PDLIM1 FPKM (Jurkat T cells): 5.135 FPKM
- PELI2 FPKM (Jurkat T cells): 8.166 FPKM
- PEX5L FPKM (Jurkat T cells): 1.299 FPKM
- PHACTR2 FPKM (Jurkat T cells): 2.791 FPKM
- PHLDB2 FPKM (Jurkat T cells): 3.404 FPKM
- PI16 FPKM (Jurkat T cells): 9.625 FPKM
- PKIG FPKM (Jurkat T cells): 11.17 FPKM
- PKM FPKM (Jurkat T cells): 1838.428 FPKM
- PLAC8 FPKM (Jurkat T cells): 1.896 FPKM
- PLEC FPKM (Jurkat T cells): 25.453 FPKM
- PLS3 FPKM (Jurkat T cells): 0.37 FPKM
- POTEE FPKM (Jurkat T cells): 1.196 FPKM
- POU2AF1 FPKM (Jurkat T cells): 2.971 FPKM
- POU2F2 FPKM (Jurkat T cells): 4.109 FPKM
- PPIF FPKM (Jurkat T cells): 106.533 FPKM
- PPP1R15A FPKM (Jurkat T cells): 76.265 FPKM
- PPP1R16B FPKM (Jurkat T cells): 26.306 FPKM
- PRDM8 FPKM (Jurkat T cells): 40.783 FPKM
- PRNP FPKM (Jurkat T cells): 41.922 FPKM
- PSMB10 FPKM (Jurkat T cells): 125.268 FPKM
- PTPN6 FPKM (Jurkat T cells): 20.806 FPKM
- PTPN7 FPKM (Jurkat T cells): 78.61 FPKM
- PXYLP1 FPKM (Jurkat T cells): 4.92 FPKM
- QPRT FPKM (Jurkat T cells): 10.818 FPKM
- RAB37 FPKM (Jurkat T cells): 1.369 FPKM
- RASGRP1 FPKM (Jurkat T cells): 3.909 FPKM
- RASGRP2 FPKM (Jurkat T cells): 2.335 FPKM
- RB1 FPKM (Jurkat T cells): 49.538 FPKM
- RCBTB2 FPKM (Jurkat T cells): 7.77 FPKM
- RCOR2 FPKM (Jurkat T cells): 1.298 FPKM
- RGS2 FPKM (Jurkat T cells): 3.39 FPKM
- RHOU FPKM (Jurkat T cells): 1.378 FPKM
- RNF19A FPKM (Jurkat T cells): 12.101 FPKM
- RNF212 FPKM (Jurkat T cells): 1.401 FPKM
- RORA FPKM (Jurkat T cells): 1.998 FPKM
- RRAS2 FPKM (Jurkat T cells): 20.023 FPKM
- RTN4R FPKM (Jurkat T cells): 1.548 FPKM
- RUNX1 FPKM (Jurkat T cells): 28.867 FPKM
- RUNX3 FPKM (Jurkat T cells): 28.166 FPKM
- SASH3 FPKM (Jurkat T cells): 46.514 FPKM
- SBK1 FPKM (Jurkat T cells): 5.945 FPKM
- SCG2 FPKM (Jurkat T cells): 86.711 FPKM
- SCHIP1 FPKM (Jurkat T cells): 1.333 FPKM
- SEPT3 FPKM (Jurkat T cells): 0.994 FPKM
- SEPT6 FPKM (Jurkat T cells): 44.841 FPKM
- SEPT9 FPKM (Jurkat T cells): 39.741 FPKM
- SERINC5 FPKM (Jurkat T cells): 3.312 FPKM
- SERPINB8 FPKM (Jurkat T cells): 23.508 FPKM
- SERPINE2 FPKM (Jurkat T cells): 3.911 FPKM
- SERTAD1 FPKM (Jurkat T cells): 14.426 FPKM
- SGK1 FPKM (Jurkat T cells): 105.258 FPKM
- SH2D1A FPKM (Jurkat T cells): 16.781 FPKM
- SH2D2A FPKM (Jurkat T cells): 22.586 FPKM
- SH3TC1 FPKM (Jurkat T cells): 1.895 FPKM
- SIVA1 FPKM (Jurkat T cells): 51.964 FPKM
- SLAMF1 FPKM (Jurkat T cells): 0.275 FPKM
- SLAMF7 FPKM (Jurkat T cells): 3.544 FPKM
- SLAMF8 FPKM (Jurkat T cells): 5.828 FPKM
- SLC22A1 FPKM (Jurkat T cells): 42.379 FPKM
- SLC27A2 FPKM (Jurkat T cells): 41.908 FPKM
- SLC29A4 FPKM (Jurkat T cells): 1.658 FPKM
- SLC35E4 FPKM (Jurkat T cells): 1.517 FPKM
- SLC35G2 FPKM (Jurkat T cells): 11.385 FPKM
- SMAD1 FPKM (Jurkat T cells): 3.995 FPKM
- SMOX FPKM (Jurkat T cells): 18.934 FPKM
- SMPD1 FPKM (Jurkat T cells): 18.206 FPKM
- SORBS1 FPKM (Jurkat T cells): 0.511 FPKM
- SOX4 FPKM (Jurkat T cells): 55.775 FPKM
- SPINT1 FPKM (Jurkat T cells): 1.712 FPKM
- SPRY1 FPKM (Jurkat T cells): 4.901 FPKM
- SPRY4 FPKM (Jurkat T cells): 7.991 FPKM
- SPSB1 FPKM (Jurkat T cells): 9.593 FPKM
- SPTBN2 FPKM (Jurkat T cells): 2.053 FPKM
- SRGN FPKM (Jurkat T cells): 9.743 FPKM
- SSBP2 FPKM (Jurkat T cells): 5.549 FPKM
- ST3GAL6 FPKM (Jurkat T cells): 5.239 FPKM
- STAT2 FPKM (Jurkat T cells): 36.117 FPKM
- STAT3 FPKM (Jurkat T cells): 74.439 FPKM
- STAU2 FPKM (Jurkat T cells): 5.719 FPKM
- STMN3 FPKM (Jurkat T cells): 7.407 FPKM
- STX1A FPKM (Jurkat T cells): 13.882 FPKM
- SYK FPKM (Jurkat T cells): 6.222 FPKM
- TAGAP FPKM (Jurkat T cells): 8.731 FPKM
- TAL1 FPKM (Jurkat T cells): 18.466 FPKM
- TAP2 FPKM (Jurkat T cells): 6.702 FPKM
- TAPBPL FPKM (Jurkat T cells): 20.693 FPKM
- TBC1D4 FPKM (Jurkat T cells): 13.191 FPKM
- TBC1D5 FPKM (Jurkat T cells): 3.021 FPKM
- TBKBP1 FPKM (Jurkat T cells): 22.205 FPKM
- TCF3 FPKM (Jurkat T cells): 36.607 FPKM
- TCF7 FPKM (Jurkat T cells): 11.184 FPKM
- TCF12 FPKM (Jurkat T cells): 29.903 FPKM
- TDRD9 FPKM (Jurkat T cells): 1.888 FPKM
- TGFBR2 FPKM (Jurkat T cells): 36.254 FPKM
- THEM6 FPKM (Jurkat T cells): 2.542 FPKM
- THEMIS FPKM (Jurkat T cells): 35.627 FPKM
- TIAF1 FPKM (Jurkat T cells): 9.375 FPKM
- TIAM1 FPKM (Jurkat T cells): 9.551 FPKM
- TIAM2 FPKM (Jurkat T cells): 0.301 FPKM
- TLE1 FPKM (Jurkat T cells): 1.647 FPKM
- TMCC3 FPKM (Jurkat T cells): 7.278 FPKM
- TNFAIP3 FPKM (Jurkat T cells): 35.424 FPKM
- TNFRSF10B FPKM (Jurkat T cells): 36.431 FPKM
- TNFSF10 FPKM (Jurkat T cells): 49.452 FPKM
- TNFSF14 FPKM (Jurkat T cells): 4.255 FPKM
- TPM4 FPKM (Jurkat T cells): 178.336 FPKM
- TPST2 FPKM (Jurkat T cells): 29.147 FPKM
- TRAF3IP3 FPKM (Jurkat T cells): 11.237 FPKM
- TRIB1 FPKM (Jurkat T cells): 4.108 FPKM
- TRIM21 FPKM (Jurkat T cells): 42.08 FPKM
- TTLL1 FPKM (Jurkat T cells): 3.295 FPKM
- UBE2L6 FPKM (Jurkat T cells): 167.347 FPKM
- UHRF1 FPKM (Jurkat T cells): 6.903 FPKM
- VAMP1 FPKM (Jurkat T cells): 14.752 FPKM
- VAT1 FPKM (Jurkat T cells): 40.336 FPKM
- VAV1 FPKM (Jurkat T cells): 22.182 FPKM
- WARS FPKM (Jurkat T cells): 112.259 FPKM
- WDR76 FPKM (Jurkat T cells): 8.215 FPKM
- XCL1 FPKM (Jurkat T cells): 1.144 FPKM
- XCL2 FPKM (Jurkat T cells): 2.074 FPKM
- XIRP1 FPKM (Jurkat T cells): 13.281 FPKM
- XRCC6BP1 FPKM (Jurkat T cells): 9.204 FPKM
- YPEL1 FPKM (Jurkat T cells): 4.38 FPKM
- ZFP36L1 FPKM (Jurkat T cells): 136.279 FPKM
- ZFP36L2 FPKM (Jurkat T cells): 9.774 FPKM
- ZNF280D FPKM (Jurkat T cells): 2.132 FPKM
- ZNF367 FPKM (Jurkat T cells): 2.274 FPKM
- ZNF480 FPKM (Jurkat T cells): 6.823 FPKM
- ZNF521 FPKM (Jurkat T cells): 1.965 FPKM
- ZNF652 FPKM (Jurkat T cells): 2.469 FPKM
- ZNF704 FPKM (Jurkat T cells): 0.183 FPKM
- ZNF827 FPKM (Jurkat T cells): 1.372 FPKM
- ZNFX1 FPKM (Jurkat T cells): 19.096 FPKM
- ZP4 FPKM (Jurkat T cells): 5.182 FPKM
- ZYX FPKM (Jurkat T cells): 85.489 FPKM
- ADORA2A FPKM: 1.475 FPKM
- AGK FPKM: 14.306 FPKM
- ARHGEF3 FPKM: 8.674 FPKM
- ASAP1 FPKM: 9.052 FPKM
- ATG14 FPKM: 11.252 FPKM
- ATP6V1B2 FPKM: 60.661 FPKM
- BCL2L1 FPKM: 41.852 FPKM
- C3 FPKM: 1.329 FPKM
- C10orf54 FPKM: 0.487 FPKM
- CABP1 FPKM: 1.689 FPKM
- CCDC64 FPKM: 11.039 FPKM
- CCL1 FPKM: 0.415 FPKM
- CCL3 FPKM: 0.502 FPKM
- CCL3L1 FPKM: 0.079 FPKM
- CCL3L3 FPKM: 0.079 FPKM
- CCL4 FPKM: 4.062 FPKM
- CCL4L1 FPKM: 0.328 FPKM
- CCL4L2 FPKM: 0.328 FPKM
- CCL20 FPKM: 1.279 FPKM
- CCND2 FPKM: 0.99 FPKM
- CD27-AS1 FPKM: 4.613 FPKM
- CD27 FPKM: 3.4 FPKM
- CD55 FPKM: 12.082 FPKM
- CD70 FPKM: 7.606 FPKM
- CD97 FPKM: 21.496 FPKM
- CD200 FPKM: 0.094 FPKM
- COL27A1 FPKM: 5.729 FPKM
- CREB5 FPKM: 1.966 FPKM
